Test results taken from US5976848A, “Method of identifying potential fungicides using dihydroorotate dehydrogenase inhibition assay” (priority 1992, dated 1999).
Values after ≈ are worked out from the molar mass of the structure shown. “Also recorded” adds a separate entry of the source.

Assays:
[1] = test system: Botrytis cinerea; experiment: greenhouse tests against Botrytis cinerea; format: in vivo
[2] = test system: Penicillium digitalum; experiment: greenhouse tests against Penicillium digitalum; format: in vivo
[3] = test system: Aspergillus nidulans; experiment: growth inhibition of Aspergillus nidulans; format: cell-based
[4] = test system: Cephalosiorium; experiment: sensitivity of Cephalosporium to CCFQ; format: cell-based
[5] = test system: Neurospora; experiment: sensitivity of Neurospora to CCFQ; format: cell-based
[6] = test system: DHOD; experiment: DHOD in vitro tests; format: biochemical
[7] = target: T1, DHOD produced by mutant Aspergillus nidulans strains resistant to CCFQ (Aspergillus nidulans, UniProt G5EB61); experiment: inhibition of DHOD produced by CCFQ-resistant mutant strains; format: biochemical; conditions: DHOD from resistant mutant A. nidulans
T1 construct: V200E (preferred, MNNG, FGSC612) or A115V (EMS, FGSC610)
T1 sequence (G5EB61 1-520): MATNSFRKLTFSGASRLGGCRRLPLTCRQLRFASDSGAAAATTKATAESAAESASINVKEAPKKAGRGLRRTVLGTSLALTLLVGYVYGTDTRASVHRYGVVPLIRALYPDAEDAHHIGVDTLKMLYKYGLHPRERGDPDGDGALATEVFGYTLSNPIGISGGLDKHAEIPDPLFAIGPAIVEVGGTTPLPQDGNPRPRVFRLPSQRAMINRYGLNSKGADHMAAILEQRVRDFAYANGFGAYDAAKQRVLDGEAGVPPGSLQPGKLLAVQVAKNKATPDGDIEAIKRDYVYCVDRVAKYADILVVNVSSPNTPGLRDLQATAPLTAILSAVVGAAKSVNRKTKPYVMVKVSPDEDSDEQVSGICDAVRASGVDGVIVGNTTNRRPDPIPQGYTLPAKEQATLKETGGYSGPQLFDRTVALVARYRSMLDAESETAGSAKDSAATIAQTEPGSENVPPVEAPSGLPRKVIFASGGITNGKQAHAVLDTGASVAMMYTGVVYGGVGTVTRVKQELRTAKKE

[8] = test system: Aspergillus nidulans; experiment: physiological and biochemical responses of Aspergillus nidulans treated with CCFQ; format: cell-based
From the text: The physiological and biochemical responses caused by the experimental fungicide CCFQ are not characteristic of known modes of action. […] It causes an unusual effect on synthesis of nucleic acids in that incorporation of radiolabelled precursors is stimulated by treatment with CCFQ. […] Some media supplements overcame growth inhibition by CCFQ. […] All these observations are consistent with the primary target of CCFQ being an electron-transferring enzyme in the pyrimidine biosynthetic pathway. […] This is a novel fungicidal mode of action, and its discovery opens the opportunity to detect novel chemical compounds that attack the same target.

[9] = treatment of Aspergillus nidulans

With `Fc1ccc(Oc2ccnc3c(Cl)cccc23)c(Cl)c1` [CCFQ, 8-chloro-4-(2-chloro-4-fluorophenoxy)quinoline] the “inhibition of Botrytis cinerea” value ([1]; 50 μg/ml, greenhouse tests) was “completely inhibits”, the “inhibition of growth of Botrytis cinerea” value ([1]; no concentration stated) was “completely inhibits” and the “inhibition of Penicillium digitalum” value ([2]; 50 μg/ml, greenhouse tests) was “completely inhibits”. For the same compound, the “inhibition of growth of Penicillium digitalum” value ([2]; no concentration stated) was “completely inhibits”, the IC50 ([3]; against Aspergillus nidulans, read-out: IC50 (concentration that inhibits growth by 50%)) was 0.15 µg/mL (≈ 0.487 µM) and the “inhibition of growth of Aspergillus” value ([3]; no concentration stated) was “inhibits the growth”. The “sensitivity to CCFQ / growth inhibition” value [4] was “inhibits the growth; also recorded: sensitive”, the “sensitivity to CCFQ / growth inhibition” value [5] was “inhibits the growth; also recorded: sensitive” and the “sensitivity of DHOD to CCFQ” value [6] was “extremely sensitive”. The “inhibition of DHOD of CCFQ-resistant mutant strains” value [7] was “resistant to inhibition”, the “reversal of growth inhibition by media supplements” value ([8]; combination of uracil and a free radical scavenger such as α-tocopherol) was “complete reversal” and the “change in amino acid content” value [8, 9] was “no significant changes”. For the same compound, the “change in lipid composition” value [8, 9] was “no significant changes”, the “change in protein accumulation” value [8, 9] was “no significant changes” and the change in respiration [8, 9] was “no significant changes”. For the same compound, the “effect on cell wall synthesis” value [8, 9] was “perturbs cell wall synthesis in a non-specific manner” and the “incorporation of radiolabelled precursors (synthesis of nucleic acids)” value [8, 9] was “stimulated”.
